# Results as given in US20220145260A1, “METHOD FOR CULTURING HEPATIC EPITHELIOID TISSUE HAVING A STRUCTURE OF CONNECTIONS BETWEEN HEPATOCYTES AND BILE DUCT EPITHELIAL CELL” (SAPPORO MEDICAL UNIVERSITY, priority 2019, published 2022).
# Assays:
# [1] = test system: hepatic epithelioid tissue (small hepatocytes and bile duct epithelial cells); assay: Fluorescein diacetate uptake and flow into bile duct in hepatic epithelioid tissue; type: cell-based, mice; conditions: hepatic epithelioid tissue 2 weeks after overlaying Matrigel; fluorescence microscopy
# Experimental: After 4 mg/ml of a type I collagen solution was prepared, it was added to wells of a pre-cooled culture plate (manufactured by Greiner Bio-One Co., Ltd.), followed by allowing to stand at 37° C. for 30 to 60 minutes to be gelatinized. Bile duct epithelial cells suspended in a DMEM/F12 medium (manufactured by Sigma Aldrich Co. LLC) containing 10% serum (fetal bovine serum), 1×insulin-transferrin-selenium (ITS), 0.1 μM dexamethasone, 5 ng/ml epidermal growth factor (EGF), and 5 ng/ml hepatocyte growth factor (HGF) were inoculated in a 24-well plate at 5×10^4 cells/well. […] The density in the cultured region of the bile duct epithelial cells in the cultured region was measured with image analysis software (manufactured by Olympus Corporation) by using photographs taken under a microscope. […]
# Fluorescein diacetate (FDA) (manufactured by Tokyo Chemical Industry Co., Ltd.) was taken up by the above-mentioned hepatic epithelioid tissue 2 weeks after overlaying Matrigel, and observation was performed with a phase-contrast microscope and a fluorescence microscope. […] FDA is taken by hepatocytes and hydrolyzed to become fluorescein that emits a fluorescence, and then is excreted into the bile canaliculus.
# [2] = test system: hepatic epithelioid tissue (small hepatocytes and bile duct epithelial cells); assay: Uptake of bilirubin by the hepatic epithelioid tissue reconstructed ex vivo; type: cell-based, mice; conditions: 10 μg/ml bilirubin, 3 to 5 days culture; tissue 2 weeks after overlaying Matrigel; Fouchet's reagent staining
# [3] = test system: barrier functions of the epithelial cells in the organoid; assay: Release of CLF into the medium by inhibition of cell-cell adhesion (tight junction barrier) with MβCD; type: cell-based, mice
# [4] = test system: coculture of human CLiP and murine bile duct epithelial cells; assay: CLF transport in coculture of human reprogramming hepatocytes (hCLiP) and murine BEC; type: cell-based; conditions: one week after overlaying collagen gel containing 40% Matrigel
# Experimental: In order to produce an organoid reflecting the metabolic functions of humans, coculture of human reprogramming hepatocytes and murine bile duct epithelial cells was performed. Specifically, murine bile duct epithelial cells were cultured on a collagen gel (the amount of collagen contained in the collagen gel: 4 mg/ml) for 5 days, and then CLIP was inoculated. Two days later, human recombinant oncostatin M (hOSM) (manufactured by R&D Systems Inc.) was added, and then 1 day later, a collagen gel containing 40% EHSgel (Matrigel) was overlaid to perform coculture.
# (A) It can be seen that the contact surface between murine BEC (the range indicated in red) and human CLIP has been formed during the early stage of coculture (see FIG. 10A). (B) One week after overlaying a collagen gel containing EHSgel (Matrigel), CLF was added.
# [5] = test system: hepatic epithelioid tissue (small hepatocytes and bile duct epithelial cells); assay: Transportation of bile acid analog CLF from hepatocytes to the bile duct; type: cell-based, mice; conditions: after 6 hours; 1 month after overlaying gel
compound,measurement,setting,value
CC(=O)Oc1ccc2c(c1)Oc1cc(OC(C)=O)ccc1C21OC(=O)c2ccccc21 [Fluorescein diacetate],flow of fluorescein (from FDA hydrolysed in hepatocytes) into the bile duct,[1],fluorescein has flowed into the bile duct
C=CC1=C(C)/C(=C/c2[nH]c(Cc3[nH]c(/C=C4\NC(=O)C(C)=C4C=C)c(C)c3CCC(=O)O)c(CCC(=O)O)c2C)NC1=O [bilirubin],flow of bilirubin taken up by hepatocytes into bile duct structure,[2],flows into a bile duct structure formed by bile duct epithelial cells
Methyl beta cyclodextrin [MβCD],concentration dependence of CLF release into the medium,[3]; 25 mM or 75 mM MβCD,release depends on the concentration of MβCD
same,CLF fluorescence leaked into the medium after MβCD addition,"[3]; 25 mM or 75 mM MβCD vs no addition, cells 1 month after addition of EHS-gel",fluorescence was detected in the medium
cholyl lysine fluorescein [CLF],transport of CLF taken up by human CLiP to murine bile duct tissue,[4],transported to a murine bile duct tissue
same,transport to the bile duct,[5],transported to the bile duct
